Here are results for 29 compounds from patent US8293729B2 (Boehringer Ingelheim International GmbH, priority 2009, dated 2012).

Where two headings read alike, the source gives them in different places.

The target in one assay is T1, human GPR119 receptor (Homo sapiens, UniProt Q8TDV5, S329A/T327A).
T1 construct: N-terminal leader […]; expressed in transfected cells
T1 sequence (Q8TDV5 with tags, fused parts or gaps T327A/S329A): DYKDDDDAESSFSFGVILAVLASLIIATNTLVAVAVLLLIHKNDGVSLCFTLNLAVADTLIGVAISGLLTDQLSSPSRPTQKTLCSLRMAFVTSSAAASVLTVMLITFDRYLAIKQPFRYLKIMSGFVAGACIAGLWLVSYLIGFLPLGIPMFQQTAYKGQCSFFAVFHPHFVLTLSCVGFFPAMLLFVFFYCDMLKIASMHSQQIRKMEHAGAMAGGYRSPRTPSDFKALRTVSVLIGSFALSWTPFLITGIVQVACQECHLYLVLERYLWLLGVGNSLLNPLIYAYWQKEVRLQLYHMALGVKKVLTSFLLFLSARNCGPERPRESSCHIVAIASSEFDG
The experiment in a line: cAMP assay (LANCE cAMP-384) in HEK293 cells stably expressing mutant human GPR119 receptor. The conditions noted are these: for activation at 10 µM: HEK293, 20 min, single concentration 10 μM, given where no EC50 value could be determined, read-out: % stimulation at 10 μM. It is filed as cell-based. The essentials: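 Agonist EC50 came from nonlinear regression over 12 concentrations (30 μM–100 pM), with % stimulation at 10 μM where no EC50 was obtained. Cells: stable HEK293 with mutant human GPR119 (T327A/S329A), 20 min compound at 37° C; cAMP read by LANCE kit with standard curve.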
A general note: cAMP levels reflect the balance of adenylyl cyclase and phosphodiesterase activity.

The subject of a further assay is male ZDF rats. The experiment in a line: In vivo OGTT (oral glucose tolerance test) in Sprague Dawley or Zucker Diabetic Fatty rats. The following applies: nine week old male ZDF rats, 30 mg/kg p.o. 30 minutes prior to glucose bolus, 2 hrs post glucose bolus. Also noted: species or system rat. The method, then:
Nine to 13 week old Male Sprague Dawley rats weighing 250 g-350 g or 9 week old male Zucker Diabetic Fatty rats weighing 300 g-450 g were fasted overnight for 16 hours. At time zero, blood was collected using the tail-nick method and glucose was measured with a glucometer (Bayer HealthCare) Animals then immediately received either vehicle (80% Labrasol, Gattefossé, France) or 3, 10, or 30 mg/kg GPR119 agonist (p.o., volume 2 mL/kg). Thirty minutes later blood glucose was again measured preceding the administration of a glucose bolus (p.o. 2 g/kg, volume 6 mL/kg). Blood glucose was then determined at 10, 20, 30, 60, 90, 120, and 180 minutes post glucose bolus or 20, 40, 60, 80, 100, and 120 minutes past glucose bolus.
Nine week old male ZDF rats were dosed with either 30 mg/kg of Compound 2-35 or 30 mg/kg of Compound 8-1 30 minutes prior to administration of the glucose bolus.

Setting [1] is: cAMP accumulation, HEK293 cells stably expressing mutant human GPR119, read-out: EC50.
Where [2] appears, read: the 43rd table, compounds 75-1 to 75-38, read-out: EC50.
Setting [3] is: the 44th table, compounds 77-1 to 77-14, read-out: EC50.
The mark [4] stands for this setting: the 34th table, compounds 65-1 to 65-24, read-out: EC50.
The mark [5] stands for this setting: the 36th table, compounds 66-1 to 66-51, read-out: EC50.

Regarding `CC(C)OC(=O)N1CCC(ON=C2CCN(c3cc(F)c([C@@H](C)N)cc3F)CC2)CC1` [Example 8-1, 4-{1-[4-((R)-1-Amino-ethyl)-2,5-difluoro-phenyl]-piperidin-4-ylideneaminooxy}-piperidine-1-carboxylic acid isopropyl ester], the EC50 at human GPR119 receptor (setting [1]) was determined as 538 nM. In the assay with male ZDF rats, the “reduction of glucose excursion compared to vehicle (glucose area under the curve)” value came to 70%.
Turning to `CNC(=O)c1cc(F)c(N2CCC(=NOC3CCN(C(=O)OC(C)C)CC3)CC2)cc1F` [Example 2-35], the EC50 on human GPR119 receptor (EC50, cAMP accumulation, HEK293 cells stably expressing mutant human GPR119) came to 34 nM. Moreover, the “reduction of glucose excursion compared to vehicle (glucose area under the curve)” value in the assay on male ZDF rats came out at 75%.
`CC(=O)N(C)Cc1cc(F)c(N2CCC(=NOC3CCN(C(=O)OC(C)C)CC3)CC2)cc1F` [Example 18-1, 4-(1-{4-[(Acetyl-methyl-amino)-methyl]-2,5-difluoro-phenyl}-piperidin-4-ylideneaminooxy)-piperidine-1-carboxylic acid isopropyl ester]: the EC50 at human GPR119 receptor (setting [1]) came to 127 nM.
On to `CC(C)OC(=O)N1CCC(ON=C2CCN(c3ncc(Cl)cc3F)CC2)CC1` [Example 2-68], for which the activation at 10 µM at human GPR119 receptor is 63%.
`CC(C)OC(=O)N1CCC(ON=C2CCN(c3cc(F)c(NS(N)(=O)=O)cc3F)CC2)CC1` [Example 38-1]: the EC50 on human GPR119 receptor (setting [1]) is 197 nM.
The same measure, in the same setting: the same measure for `CC(C)OC(=O)N1CCC(ON=C2CCN(c3cc(F)c(CNC=O)cc3F)CC2)CC1` [Example 16-8]: 120 nM.
For the compound `CC(C)OC(=O)N1CCC(ON=C2CCN(c3cc(F)c(CC(=O)N4CCCCC4CN4CCCCC4)cc3F)CC2)CC1` (stereo not shown) [Example 75-32], the EC50 on human GPR119 receptor (setting [2]) is 300 nM.
Consider `CCc1cnc(N2CCC(ON=C3CCN(c4cc(F)c(CC(=O)N5CCC(N)CC5)cc4F)CC3)CC2)nc1` [Example 77-2], for which the EC50 at human GPR119 receptor (setting [3]) stood at 22 nM.
For the compound `CC(C)OC(=O)N1CCC(ON=C2CCN(c3cc(F)c(-c4nnn[nH]4)cc3F)CC2)CC1` [Example 27-28], on human GPR119 receptor, the activation at 10 µM was 86%.
`CC(C)OC(=O)N1CCC(ON=C2CCN(c3cc(F)c(Cn4ccnc4)cc3F)CC2)CC1` [Example 14-4]: the EC50 on human GPR119 receptor (setting [1]) worked out at 268 nM.
With `CS(=O)(=O)c1ccc(N2CCC(=NOC3CCN(CC(=O)OCc4ccccc4)CC3)CC2)c(F)c1` [Example 65-5], the EC50 at human GPR119 receptor (setting [4]) is 3380 nM.
The same measure, in the same setting: the same measure for `CS(=O)(=O)c1ccc(N2CCC(=NOC3CCN(C(=S)NC4CCCCC4)CC3)CC2)c(F)c1` [Example 65-9]: 1800 nM.
As to `CN(C)CCCOC(=O)N1CCC(ON=C2CCN(c3ccc(S(C)(=O)=O)cc3F)CC2)CC1` [Example 64-15], the EC50 at human GPR119 receptor (the 33rd table, read-out: EC50) is > 10000 nM.
As for `CS(=O)(=O)c1ccc(N2CCC(=NOC3CCN(Cc4ccccc4F)CC3)CC2)c(F)c1` [Example 66-16], the EC50 on human GPR119 receptor (setting [5]) is 560 nM.
Turning to `CC(C)OC(=O)N1CCC(ON=C2CCN(c3cc(F)c(CC(=O)NC4CCNC4)cc3F)CC2)CC1` (stereo not shown) [Example 75-17], on human GPR119 receptor (setting [2]), the EC50 worked out at 152 nM.
In the case of `CS(=O)(=O)c1ccc(N2CCC(=NOC3CCN(C(=S)NC4CC4)CC3)CC2)c(F)c1` [Example 65-10], the EC50 at human GPR119 receptor (setting [4]) was > 10000 nM.
Regarding `CCOC(=O)CC(=O)c1cc(F)c(N2CCC(=NOC3CCN(C(=O)OC(C)C)CC3)CC2)nc1Cl` [Example 2-48], the EC50 at human GPR119 receptor (setting [1]) came to 146 nM.
Regarding `CC(C)OC(=O)N1CCC(ON=C2CCN(c3cc(F)c(C(=O)NCCC4CCNCC4)cc3F)CC2)CC1` [Example 29-32], the EC50 on human GPR119 receptor (the 15th table, read-out: EC50) was found to be 73 nM.
Consider `CS(=O)(=O)c1ccc(N2CCC(=NOC3CCN(Cc4ccc(F)cc4)CC3)CC2)c(F)c1` [Example 66-33], for which, at human GPR119 receptor (setting [5]), the EC50 came to 822 nM.
As for `CC(C)OC(=O)N1CCC(ON=C2CCN(c3cc(F)c(C(C)O)cc3F)CC2)CC1` (stereo not shown) [Example 50-1, 4-{1-[2,5-Difluoro-4-(1-hydroxy-ethyl)-phenyl]-piperidin-4-ylideneaminooxy}-piperidine-1-carboxylic acid isopropyl ester], the EC50 on human GPR119 receptor (setting [1]) is 48 nM.
For the compound `CC[C@H](C)COC(=O)N1CCC(ON=C2CCN(c3ccc(S(C)(=O)=O)cc3F)CC2)CC1` [Example 64-48], on human GPR119 receptor (the 33rd table, read-out: EC50), the EC50 came to 54 nM.
Take `Cc1ccc(N2CCC(ON=C3CCN(c4ccc(S(C)(=O)=O)cc4F)CC3)CC2)cn1` [Example 67-3]: the EC50 at human GPR119 receptor (the 39th table, compounds 67-1 to 67-3, read-out: EC50) came out at 745 nM.
Turning to `CC(C)OC(=O)N1CCC(ON=C2CCN(c3cc(F)c(CS(=O)(=O)C4CC4)cc3F)CC2)CC1` [Example 14-3], the EC50 at human GPR119 receptor (setting [1]) came to 19 nM.
`CC(C)OC(=O)N1CCC(ON=C2CCN(c3cc(F)c(S(C)(=O)=O)cc3F)CC2)CC1` [Example 2-60]: the EC50 on human GPR119 receptor (setting [1]) was found to be 28 nM.
The same measure, in the same setting: the same measure for `CCOC(=O)CNC(=O)NCc1cc(F)c(N2CCC(=NOC3CCN(C(=O)OC(C)C)CC3)CC2)cc1F` [Example 16-9]: 401 nM.
In the case of `C/C=C/c1ccc(CN2CCC(ON=C3CCN(c4cc(F)c(S(C)(=O)=O)cc4F)CC3)CC2)c(F)c1` [Example 66-62], the EC50 on human GPR119 receptor (the 37th table, compounds 66-52 to 66-64, read-out: EC50) was determined as 136 nM.
`CCc1cnc(N2CCC(ON=C3CCN(c4cc(F)c(C(=O)NCC5CCCN5)cc4F)CC3)CC2)nc1` (stereo not shown) [Example 29-122]: the EC50 on human GPR119 receptor (the 19th table, unit inferred, read-out: EC 50) was 176 nM.
As for `CC(C)OC(=O)N1CCC(ON=C2CCN(c3cc(F)c([S+](C)[O-])cc3F)CC2)CC1` (stereo not shown) [Example 2-41], the EC50 at human GPR119 receptor (setting [1]) is 58 nM.
Consider `CCc1cnc(N2CCC(ON=C3CCN(c4cc(F)c(CC(=O)N5CCC[C@H](N)C5)cc4F)CC3)CC2)nc1` [Example 77-7], for which, on human GPR119 receptor (setting [3]), the EC50 was 45 nM.
